Assay results from US20240002326A1, “COMPOUNDS AND USE THEREOF IN METHODS OF TREATMENT” (The University of Queensland, priority 2016, published 2024).

What was measured:
[1] = target: SOX18[109] HMG fragment (Mus musculus (Mouse), UniProt P43680); assay: FP DNA-binding competition assay, SOX18[109] HMG fragment; conditions: SOX18/DNA binding; for remaining activity at 50 µM: read-out: FP bound fraction (%) 50 μM; for remaining activity at 200 µM: read-out: FP bound fraction (%) 200 μM
Description: Mouse SOX HMG fragments. The HMG domains of mouse SOX2 (Group B), SOX11 (Group C), SOX6 (Group D), SOX9 (Group E), SOX18 (Group F) and SOX15 (Group G) were BP cloned from cDNA templates (IMAGE cDNA clone IDs: Sox18: 3967084; Sox9: 5354229; Sox4: 6822618) into a pDONRTM221 pENTRY vector, sequenced and recombined into a pETG20A or a pHisMBP expression plasmid using Gateway®LR Technology (Ng et al., 2012). Constructs were transformed into Escherichia coli BL21(DE3) cells (Luria-Bertani, 100 μg/ml Ampicillin).
The DNA-binding competition assay was performed in black 384-well plates, with mouse full length SOX18, or SOX-HMG fragments. All experiments were performed using a fluorescently-labelled Prox1-DNA element. Controls consisted of free labelled DNA (low FP milli-Polarization index, mP), labelled DNA in presence of protein (negative control, high mP), and labelled DNA and protein in presence of competing excess of unlabelled DNA (positive control, low mP)
The DNA-binding competition assay was performed in 25 uL, in black 384-well plates, using either 30 mM HEPES (N-2-Hydroxyethylpiperazine-N′-2-Ethanesulfonic Acid) (pH 7.5, with 100 mM KCl, 40 mM NaCl, 10 mM NH4OAc, […], 2 mM MgCl2, 0.5 mM EDTA, 0.01% NP-40) for mouse full length SOX18, or Tris-NaCl (10 mM Tris pH 8.0 and 100 mM NaCl) for SOX-HMG fragments. All experiments were performed using a 40 bp double-stranded Prox1-DNA element with 5′ fluorescein amidite (FAM) label (Sigma Proligo or InVitrogen). Optimum binding levels were obtained at 200 nM of mouse full length SOX18 and 60 nM of SOX-HMG fragment, in presence of 5 nM labelled DNA. Controls consisted of free labelled DNA (low FP milli-Polarization index, mP), labelled DNA in presence of protein (negative control, high mP), and labelled DNA and protein in presence of 400 time competing excess of unlabelled DNA (positive control, low mP). Depending on compound, final DMSO concentrations ranged from 2 to 3.33% v/v. After mixing protein, DNA probe and compound, plates were sealed and briskly agitated in the dark for 5 minutes at room temperature, 10 minutes at 37° C., and 30 minutes at room temperature, before reading fluorescence polarization on a Tecan M1000Pro (λexc=485 nm, λem=525 nm). All experiments were performed in triplicates.
In order to pinpoint the possible binding site of the small molecules, the FP assays were repeated with a shorter, DNA-binding centred protein fragment. The DNA binding domain of SOX TFs consists of the […] amino acid long High Mobility Group (HMG) box. The 109 amino-acid long SOX18 fragment (SOX18[109]) corresponds to residues 69-177 (numbering by mouse SOX18), which includes the HMG box (residues 78-149) and N- and C-terminal flanking sequences of 9 and 28 amino-acids, respectively.

[2] = system: HepG2; assay: Cytotoxicity assay (Alamar blue), HepG2; format: cell-based; conditions: HepG2, 24 h
[3] = system: HEK293; assay: Cytotoxicity assay (Alamar blue), HEK293; format: cell-based; conditions: HEK293, 24 h
Description: (§1) Cell toxicity was determined using Alamar blue, as previously described (McMillian et al., 2002). COS-7 cells were seeded as 7000 cells per well in black wall clear bottom 96-well plates in DMEM medium (Life Technologies Australia) with 10% FBS. HepG2 and HEK293 cell lines, from ATCC, were seeded as 5000 cells per well in black wall clear bottom 384-well cell culture plates in DMEM with 1% FBS. Cells were cultured for 24 h at 37° C., 5% CO2. A serial dilution of compounds was added, with a final DMSO concentration adjusted to 0.5% v/v. Cells were incubated for another 24 h. 1 Triton X-100 was used as negative control, and 0.5% DMSO as positive control. 5 μM Alamar blue was added to each well and fluorescence was measured (λexc=560 nm, λem=590 nm) after 2 h incubation at 37° C. Data were analysed using Prism software.

[4] = Cytotoxicity assay (Alamar blue), HepG2; format: cell-based; conditions: human, HepG2 cells; HepG2, 24 h
[5] = Cytotoxicity assay (Alamar blue), HEK293; format: cell-based; conditions: human, HEK293 cells; HEK293, 24 h
Description: as §1

[6] = target: SOX18-RBPJ interaction (Homo sapiens (Human), UniProt P35713); assay: ALPHAScreen SOX18-RBPJ protein-protein interaction; format: binding; conditions: 5 μM
Excerpt: Proteins were genetically encoded with enhanced GFP (GFP), mCherry and cMyc (myc) tags, and cloned into cell free expression Gateway destination vectors: N-terminal GFP tagged (pCellFree_G03), N-terminal Cherry-cMyc (pCellFree_G07) and C-terminal Cherry-cMyc tagged (pCellFree_G08) (Gagoski et al., 2015). Human RBPJ (BC020780) and MEF2C (BC026341) Open Reading Frames (ORFs) were sourced from the Human ORFeome collection, version 1.1 and 5.1, and the Human Orfeome collaboration OCAA collection (Open Biosystems), as previously described (Sierecki et al., 2013) and cloned at the ARVEC facility, UQ Diamantina Institute. The entry clones pDONOR223 or pENTR201 vectors were exchanged with the ccdB gene in the expression plasmid by LR recombination (Life Technologies, Australia). The full-length human SOX18 gene was synthesized and the transfer to vectors was realized using Gateway PCR cloning. Translation competent Leishmania tarentolae extract (LTE) was prepared as previously described (Kovtun et al., 2011, Mureev et al., 2009). Protein pairs were co-expressed by adding 30 nM of GFP template plasmid and 60 nM of Cherry template plasmid to LTE and incubating for 3 hours at 27° C.
ALPHAScreen was performed as previously described (Sierecki et al., 2014, Sierecki et al., 2013). […] Percentage of interaction was calculated as: (I_cpd/I_DMSO)×100 from 3 independent experiments.
(§2) ALPHAScreen was performed as previously described (Sierecki et al., 2014, Sierecki et al., 2013), using the cMyc detection kit and Proxiplate-384 Plus plates (PerkinElmer). The LTE lysate co-expressing the proteins of interest was diluted in buffer A (25 mM HEPES, 50 mM NaCl). For the assay, 12.5 μL (0.4 μg) of Anti-cMyc coated Acceptor Beads in buffer B (25 mM HEPES, 50 mM NaCl, 0.001% NP40, 0.001% casein) were aliquoted into each well. This was followed by the addition of 2 μL of diluted sample, at different concentration, and 2 μL of biotin labeled GFP-Nanotrap in buffer A. The plates were incubated for 45 min at room temperature, then adding 2 μL (0.4 μg) of streptavidin-coated Donor Beads diluted in buffer A, and incubation in the dark for 45 min at room temperature. The ALPHAScreen signal was measured on an Envision Plate Reader (PerkinElmer), using manufacturer's recommended settings (λexc=680/30 nm for 0.18 s, λem=570/100 nm after 37 ms). The resulting bell-shaped curve is an indication of a positive interaction, while a flat line reflects a lack of interaction between the proteins. The measurement of each protein pair was repeated in triplicate.
(§3) I is the highest signal level (top of the hook effect curve) and Ineg is the lowest (background) signal level. The signals were normalized to the Iref signal obtained for the strongest interaction. […] Percentage of interaction was calculated as: […]
The ALPHA-Screen Assay was performed as previously described (Sierecki et al. 2014), using the cMyc detection kit and Proxiplate-384 Plus plates (PerkinElmer). A serial dilution of each sample was measured. The LTE lysate co-expressing the proteins of interest was diluted in buffer A (25 mM HEPES, 50 mM NaCl). For the assay, 12.5 μL (0.4 μg) of Anti-cMyc coated Acceptor Beads in buffer B (25 mM HEPES, 50 mM NaCl, 0.001% NP40, casein) were aliquoted into each well. This was followed by the addition of 2 μL of diluted sample and 2 μL of biotin labeled GFP-Nanotrap in buffer A. The plate was incubated for 45 min at RT. Afterward, 2 μL (0.4 μg) of Streptavidin coated Donor Beads diluted in buffer A, were added, followed by incubation in the dark for 45 min at RT. The ALPHA-Screen signal was obtained on an Envision Multilabel Plate Reader (PerkinElmer), using the manufacturer's recommended settings (excitation: 680/30 nm for 0.18 s, emission: 570/100 nm after 37 ms). The resulting bell-shaped curve is an indication of a positive interaction, while a flat line reflects a lack of interaction between the proteins. […]

[7] = target: SOX18-SOX18 homodimer (Homo sapiens (Human), UniProt P35713); assay: ALPHAScreen SOX18-SOX18 homodimerization; format: binding; conditions: 5 uM
Description: as §2, §3
The ALPHA-Screen Assay was performed as previously described (Sierecki et al. 2014), using the cMyc detection kit and Proxiplate-384 Plus plates (PerkinElmer). A serial dilution of each sample was measured. The LTE lysate co-expressing the proteins of interest was diluted in buffer A (25 mM HEPES, 50 mM NaCl). For the assay, 12.5 μL (0.4 μg) of Anti-cMyc coated Acceptor Beads in buffer B (25 mM HEPES, 50 mM NaCl, 0.001% NP40, casein) were aliquoted into each well. This was followed by the addition of 2 μL of diluted sample and 2 μL of biotin labeled GFP-Nanotrap in buffer A. The plate was incubated for 45 min at RT. Afterward, 2 μL (0.4 μg) of Streptavidin coated Donor Beads diluted in buffer A, were added, followed by incubation in the dark for 45 min at RT. The ALPHA-Screen signal was obtained on an Envision Multilabel Plate Reader (PerkinElmer), using the manufacturer's recommended settings (excitation: 680/30 nm for 0.18 s, emission: 570/100 nm after 37 ms). The resulting bell-shaped curve is an indication of a positive interaction, while a flat line reflects a lack of interaction between the proteins. The measurement of each protein pair was repeated a minimum of three times using separate plates. The Binding Index was calculated as: BI=[(I−I_neg)/(I_ref−I_neg)]×100
For PPI disruption assay, protein pairs expressed in LTE were incubated for 1 h with 100 μM Sm4 or DMSO alone (0.7% DMSO final). 100 μM Sm4 or DMSO was also added to buffer B. PPI disruption was calculated as: (1−I_Sm4/I_DMSO)×100.
For IC50 determination, the assay was identical but a dilution range of Sm4 was used (0.3 to 300 μM). Percentage of interaction was calculated as: I_Sm4/1 DMSO×100. Data from at least 3 independent experiments were fitted in GraphPad Prism (RRID: SCR_007370) version 6.0 using 3-parameter non-linear regression.

SOX18[109] HMG fragment, sequence (P43680 69-177): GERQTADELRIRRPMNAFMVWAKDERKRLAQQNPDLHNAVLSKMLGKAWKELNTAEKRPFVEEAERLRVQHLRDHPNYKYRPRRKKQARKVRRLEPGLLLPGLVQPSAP
SOX18-SOX18 homodimer, sequence (P35713 whole entry): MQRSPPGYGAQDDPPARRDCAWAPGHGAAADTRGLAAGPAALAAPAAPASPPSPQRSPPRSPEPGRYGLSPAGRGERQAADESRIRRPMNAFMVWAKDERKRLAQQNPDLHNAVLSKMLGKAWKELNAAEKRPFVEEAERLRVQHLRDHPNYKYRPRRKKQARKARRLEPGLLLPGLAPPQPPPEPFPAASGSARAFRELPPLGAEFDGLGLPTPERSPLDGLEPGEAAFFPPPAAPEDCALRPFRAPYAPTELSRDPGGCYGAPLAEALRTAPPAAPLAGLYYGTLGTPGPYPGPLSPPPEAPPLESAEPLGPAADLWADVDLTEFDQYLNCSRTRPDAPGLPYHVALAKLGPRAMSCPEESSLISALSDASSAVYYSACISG
SOX18-RBPJ interaction, sequence (P35713 whole entry): as above

Molecule | FP bound fraction (%) 50 μM [1] | FP bound fraction (%) 200 μM [1] | CC50 [2] | CC50 [3] | remaining activity at 50 µM [1] | remaining activity at 200 µM [1] | CC50 at 24 h [4] | CC50 at 24 h [5] | SOX18-RBPJ protein-protein binding inhibition at 5 μM [6] | inhibitory activity in respect of SOX18-SOX18 homodimerization [7]
COc1cc(O)c(C(=O)O)c(C=Cc2ccc3ccccc3c2)c1 (mixture of isomers) [Sm28, (E/Z)-2-hydroxy-4-methoxy-6-(2-(naphthalen-2-yl)vinyl)benzoic acid] | 76.3 ± 2.3% | 19.3 ± 8.4% | 78.9 µM | 65.1 µM |  |  |  |  |  | 
CCN(CC)C(=O)c1c(O)cccc1CCc1ccc2ccccc2c1 [Sm18, N,N-diethyl-2-hydroxy-6-(2-(naphthalen-2-yl)ethyl)benzamide] |  |  |  |  | 98.7 ± 5% | 107 ± 21.3% | 28 µM | 38.7 µM | highly active | 
COc1cc(Cl)cc(/C=C/c2ccc3ccccc3c2)c1C(=O)O [Sm31, (E)-4-chloro-2-methoxy-6-(2-(naphthalen-2-yl)vinyl)benzoic acid] |  |  |  |  | 97.7 ± 5.9% | 91.7 ± 2.1% | > 100 µM | 92.7 µM |  | some inhibitory activity
O=C(O)c1c(O)cc(Cl)cc1CCc1ccc2ccccc2c1 [Sm33, (E)-4-chloro-2-hydroxy-6-(2-(naphthalen-2-yl)ethyl)benzoic acid] | 50.1 ± 54.6% | 9.9 ± 2.3% | 34.5 µM | 33.4 µM |  |  |  |  |  | 
COc1cc(/C=C\c2ccccc2)cc(OC)c1OC [Sm37, (Z)-1,2,3-trimethoxy-5-styrylbenzene] |  |  |  |  | 98.2 ± 7.4% | 104 ± 10.4% | > 100 µM | > 100 µM |  | some inhibitory activity
COc1cc(/C=C\c2ccc3ccccc3c2)cc(OC)c1OC [Sm41, (Z)-2-(3,4,5-trimethoxystyryl)naphthalene] |  |  |  |  | 100 ± 10% | 90.2 ± 46.1% | > 100 µM | > 100 µM |  | some inhibitory activity
N,N-diethyl-2-methoxy-6-(2-(naphthalene-2-yl)vinyl)benzamide [Sm17] | 100.3 ± 6.0% | 117.0 ± 10.9% | 38.5 µM | 62.6 µM |  |  |  |  |  | 
